Laboratory results taken from article PMC4965013, “Open Source Drug Discovery with the Malaria Box Compound Collection for Neglected Diseases and Beyond” (PLoS Pathogens, 2016).

Columns and labels:
[1] = system: bovine Babesia and equine Babesia and Theileria parasites; test: Babesia and Theileria fluorescence-based assay, all four species; format: cell-based, B. bovis, B. bigemina, T. equi, B. caballi
P. falciparum = test: EC50 listed in S2 Table Metabolomics (used to set the concentration tested); format: cell-based; conditions: Plasmodium falciparum; EC50 used for Factor_XEC50 in metabolomics; read-out: EC50_nM
[2] = system: P. falciparum 3D7 trophozoites; test: Metabolomic fingerprint profiling LC-MS; format: cell-based, Plasmodium falciparum; design: UDP-D-glucose / ADP-D-glucose: unit not given here; conditions: for Acetyllysine / N-acetyl-L-ornithine / N-carbamoyl-L-aspartate / NADPH / dAMP / dCMP / dTDP / dTMP / dTTP / dihydroorotate / orotate / DLH / DLS/SDL/SID / PD / PEE / PVNF / 3-phosphoglycerate / ADP-D-glucose / ATP / CDP / D-sedoheptulose-1/7-phosphate / FAD / GMP / NAD+ / NADP+ / Octoluse Bisphosphate / Pyroglutamic acid / UDP-D-glucose / UDP-D-glucuronate / UDP-N-acetyl-glucosamine / UDP / UMP / UTP / a-ketoglutarate / citrate/isocitrate / cytidine / dATP / dGMP/AMP / fumarate / glucose-1/6-phosphate / glycerate / guanine / guanosine / hypoxanthine / indole / inosine / nicotinate / ornithine / phosphoenolpyruvate / pyruvate / ribose-phosphate / sarcosine/alanine / sn-glycerol-3-phosphate / succinate/methylmalonic acid / uridine / xanthosine: S2 Table Metabolomics; for Acetyllysine: metabolite Acetyllysine; for N-acetyl-L-ornithine: metabolite N-acetyl-L-ornithine; for N-carbamoyl-L-aspartate: metabolite N-carbamoyl-L-aspartate; for NADPH: metabolite NADPH; for dAMP: metabolite dAMP; for dCMP: metabolite dCMP; for dTDP: metabolite dTDP; for dTMP: metabolite dTMP; for dTTP: metabolite dTTP; for dihydroorotate: metabolite dihydroorotate; for orotate: metabolite orotate; for DLH: peptide DLH; for DLS/SDL/SID: peptide DLS/SDL/SID; for PD: peptide PD; for PEE: peptide PEE; for PVNF: peptide PVNF; for 3-phosphoglycerate: metabolite 3-phosphoglycerate; for ADP-D-glucose: metabolite ADP-D-glucose; for ATP: metabolite ATP; for CDP: metabolite CDP; for CDP / D-sedoheptulose-1/7-phosphate / GMP / Octoluse Bisphosphate / UDP / UMP / UTP / citrate/isocitrate / dGMP/AMP / fumarate / glucose-1/6-phosphate / glycerate / guanine / guanosine / inosine / pyruvate / sarcosine/alanine / succinate/methylmalonic acid / uridine / xanthosine: change in metabolite level after compound treatment; for D-sedoheptulose-1/7-phosphate: metabolite D-sedoheptulose-1/7-phosphate; for FAD: metabolite FAD; for GMP: metabolite GMP; for NAD+: metabolite NAD+; for NADP+: metabolite NADP+; for Octoluse Bisphosphate: metabolite Octoluse Bisphosphate; for Pyroglutamic acid: metabolite Pyroglutamic acid; for UDP-D-glucose: metabolite UDP-D-glucose; for UDP-D-glucuronate: metabolite UDP-D-glucuronate; for UDP-N-acetyl-glucosamine: metabolite UDP-N-acetyl-glucosamine; for UDP: metabolite UDP; for UMP: metabolite UMP; for UTP: metabolite UTP; for a-ketoglutarate: metabolite a-ketoglutarate; for citrate/isocitrate: metabolite citrate/isocitrate; for cytidine: metabolite cytidine; for dATP: metabolite dATP; for dGMP/AMP: metabolite dGMP/AMP; for fumarate: metabolite fumarate; for glucose-1/6-phosphate: metabolite glucose-1/6-phosphate; for glycerate: metabolite glycerate; for guanine: metabolite guanine; for guanosine: metabolite guanosine; for hypoxanthine: metabolite hypoxanthine; for indole: metabolite indole; for inosine: metabolite inosine; for 2_3-Diphosphoglyceric acid / 4-phosphopantothenate / 6-phospho-D-gluconate / FMN / IMP / Pyrophosphate / Sedoheptoluse bisphosphate / cyclic-AMP / glutathione disulfide / lactate / myo-inositol: metabolite level change after treatment; for nicotinate: metabolite nicotinate; for ornithine: metabolite ornithine; for phosphoenolpyruvate: metabolite phosphoenolpyruvate; for pyruvate: metabolite pyruvate; for ribose-phosphate: metabolite ribose-phosphate; for sarcosine/alanine: metabolite sarcosine/alanine; for sn-glycerol-3-phosphate: metabolite sn-glycerol-3-phosphate; for succinate/methylmalonic acid: metabolite succinate/methylmalonic acid; for uridine: metabolite uridine; for xanthosine: metabolite xanthosine

Compound: CN(C)c1ccc(C(O)(c2ccc(N(C)C)cc2)c2ccc(N(C)C)cc2)cc1 [MMV665941]
- anti-Babesia and anti-Theileria hits, IC50 in words [1]: nanomolar IC50s
- EC50 (P. falciparum): 255 nM
- Acetyllysine [2]: -1.017
- N-acetyl-L-ornithine [2]: -0.7597
- N-carbamoyl-L-aspartate [2]: -0.9197
- NADPH [2]: 0.7329
- dAMP [2]: -0.1528
- dCMP [2]: -0.8045
- dTDP [2]: -0.3693
- dTMP [2]: -0.3724
- dTTP [2]: 0.2892
- dihydroorotate [2]: -0.7761
- orotate [2]: -0.6971
- DLH [2]: -0.3436
- DLS/SDL/SID [2]: -0.7858
- PD [2]: -0.9616
- PEE [2]: -0.896
- PVNF [2]: -0.9967
- 3-phosphoglycerate [2]: -0.2513
- ADP-D-glucose [2]: -0.2022
- ATP [2]: -0.1582
- CDP [2]: -0.3781
- D-sedoheptulose-1/7-phosphate [2]: -0.2425
- FAD [2]: -0.1824
- GMP [2]: -1.314
- NAD+ [2]: -0.1192
- NADP+ [2]: 0.08054
- Octoluse Bisphosphate [2]: -0.4622
- Pyroglutamic acid [2]: -0.1275
- UDP-D-glucose [2]: -0.08523
- UDP-D-glucuronate [2]: -0.09688
- UDP-N-acetyl-glucosamine [2]: -0.3177
- UDP [2]: -0.7488
- UMP [2]: -1.259
- UTP [2]: -0.2947
- a-ketoglutarate [2]: -0.5688
- citrate/isocitrate [2]: -0.2269
- cytidine [2]: 0.5361
- dATP [2]: 0.2904
- dGMP/AMP [2]: -0.7364
- fumarate [2]: -0.9732
- glucose-1/6-phosphate [2]: -0.5386
- glycerate [2]: -0.5934
- guanine [2]: -0.3347
- guanosine [2]: -0.8332
- hypoxanthine [2]: -0.2046
- indole [2]: -0.2792
- inosine [2]: -0.51
- 2_3-Diphosphoglyceric acid [2]: -0.09061
- 4-phosphopantothenate [2]: -0.6586
- 6-phospho-D-gluconate [2]: -0.08067
- FMN [2]: 0.05461
- IMP [2]: -0.2283
- Pyrophosphate [2]: -0.1004
- Sedoheptoluse bisphosphate [2]: -0.2916
- cyclic-AMP [2]: 0.03248
- glutathione disulfide [2]: -0.3448
- lactate [2]: -0.6265
- myo-inositol [2]: -1.035
- nicotinate [2]: 0.06813
- ornithine [2]: -0.116
- phosphoenolpyruvate [2]: -0.1381
- pyruvate [2]: -0.3661
- ribose-phosphate [2]: -0.3246
- sarcosine/alanine [2]: -0.4581
- sn-glycerol-3-phosphate [2]: -0.06155
- succinate/methylmalonic acid [2]: -1.567
- uridine [2]: -0.4322
- xanthosine [2]: -0.131

Compound: COc1ccccc1N=C1C(=O)c2ccccc2C(O)=C1N1CCCCC1 [MMV085203]
- anti-Babesia and anti-Theileria hits, IC50 in words [1]: nanomolar IC50s
- Acetyllysine [2]: 0.5338
- N-acetyl-L-ornithine [2]: 0.417
- N-carbamoyl-L-aspartate [2]: -0.03953
- NADPH [2]: 1.905
- dAMP [2]: 0.2134
- dCMP [2]: -0.3018
- dTDP [2]: 0.1555
- dTMP [2]: 0.3091
- dTTP [2]: 0.09879
- dihydroorotate [2]: -0.4435
- orotate [2]: -0.006229
- DLH [2]: 0.05618
- DLS/SDL/SID [2]: 0.215
- PD [2]: -0.1394
- PEE [2]: 0.002208
- PVNF [2]: 0.05104
- 3-phosphoglycerate [2]: 0.03547
- ADP-D-glucose [2]: -0.1308
- ATP [2]: 0.1374
- CDP [2]: 0.2087
- D-sedoheptulose-1/7-phosphate [2]: 0.1847
- FAD [2]: -0.04298
- GMP [2]: 0.06518
- NAD+ [2]: -0.0924
- NADP+ [2]: 0.08883
- Octoluse Bisphosphate [2]: 0.05889
- Pyroglutamic acid [2]: 0.3327
- UDP-D-glucose [2]: 0.02335
- UDP-D-glucuronate [2]: 0.1307
- UDP-N-acetyl-glucosamine [2]: -0.006531
- UDP [2]: 0.1215
- UMP [2]: -0.1092
- UTP [2]: 0.1112
- a-ketoglutarate [2]: 0.6853
- citrate/isocitrate [2]: 0.6482
- cytidine [2]: -0.04401
- dATP [2]: 0.1251
- dGMP/AMP [2]: 0.1681
- fumarate [2]: 0.1969
- glucose-1/6-phosphate [2]: -0.1808
- glycerate [2]: 0.6274
- guanine [2]: 0.2252
- guanosine [2]: 0.5678
- hypoxanthine [2]: 0.8131
- indole [2]: 0.6437
- inosine [2]: 0.2953
- 2_3-Diphosphoglyceric acid [2]: 0.04377
- 4-phosphopantothenate [2]: 0.03169
- 6-phospho-D-gluconate [2]: 0.09424
- FMN [2]: -0.0513
- IMP [2]: 0.06497
- Pyrophosphate [2]: -0.1041
- Sedoheptoluse bisphosphate [2]: 0.1294
- cyclic-AMP [2]: 0.1643
- glutathione disulfide [2]: -0.1576
- lactate [2]: 0.4496
- myo-inositol [2]: 0.5579
- nicotinate [2]: 0.3875
- ornithine [2]: 0.05264
- phosphoenolpyruvate [2]: 0.005153
- pyruvate [2]: 1.4601
- ribose-phosphate [2]: 1.0837
- sarcosine/alanine [2]: 0.0342
- sn-glycerol-3-phosphate [2]: -0.8649
- succinate/methylmalonic acid [2]: 0.5863
- uridine [2]: 0.4561
- xanthosine [2]: 0.5245
